Results: ChEMBL document CHEMBL1201862, “PubChem BioAssay data set” (2004)
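Test compounds were applied to cells in 96-well plates for 48 hours at 5 doses. At the GI50, growth is halved.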 Calls of active or inactive are those of the source. Cut-off read from the data, not from the text of the source: active = GI50 up to about 1.1 µM and inactive = higher.

Key:
Experiment in all cases: NCI anticancer screen, dose series, 48 h
U-251 = test system: U-251
OVCAR-5 = test system: OVCAR-5
M14 = test system: M14
CCRF-CEM = test system: CCRF-CEM
CAKI-1 = test system: CAKI-1
HL-60 = test system: HL-60
MOLT-4 = test system: MOLT-4
HCC 2998 = test system: HCC 2998
SNB-75 = test system: SNB-75
A549 = test system: A549
OVCAR-3 = test system: OVCAR-3
UACC-257 = test system: UACC-257
OVCAR-8 = test system: OVCAR-8
UACC-62 = test system: UACC-62
MDA-MB-435 = test system: MDA-MB-435
786-0 = test system: 786-0
ACHN = test system: ACHN
NCI-H522 = test system: NCI-H522
NCI-H23 = test system: NCI-H23
SNB-19 = test system: SNB-19

Measured: GI50

CCOC(=O)CCC(NC(=O)c1ccc(OCc2nc3cc(C(F)(F)F)ccc3nc2-c2ccccc2)cc1)C(=O)OCC (stereo unspecified)
inactive: U-251 > 100 µM | OVCAR-5 > 100 µM | M14 81.7 µM | CCRF-CEM 58.2 µM | CAKI-1 74.8 µM | HL-60 > 100 µM | MOLT-4 40 µM | HCC 2998 > 10 µM | SNB-75 4.07 µM | A549 > 100 µM | OVCAR-3 79.1 µM | UACC-257 67.3 µM | OVCAR-8 > 100 µM | UACC-62 52.8 µM | MDA-MB-435 84.1 µM | 786-0 > 100 µM | ACHN 94.2 µM | NCI-H522 > 100 µM | NCI-H23 85.3 µM | SNB-19 > 100 µM

Nn1c(-c2ccccc2)n[nH]c1=O
inactive: U-251 > 100 µM | OVCAR-5 > 100 µM | M14 > 100 µM | CCRF-CEM > 100 µM | CAKI-1 > 100 µM | HL-60 > 100 µM | MOLT-4 > 100 µM | HCC 2998 > 100 µM | SNB-75 > 100 µM | A549 > 100 µM | OVCAR-3 > 100 µM | UACC-257 > 100 µM | OVCAR-8 > 100 µM | UACC-62 > 100 µM | MDA-MB-435 > 100 µM | 786-0 > 100 µM | ACHN > 100 µM | NCI-H522 > 100 µM | NCI-H23 > 100 µM | SNB-19 > 100 µM

CCCCCCCCCCCCCCCCP(=O)(O)OCC(N)C(=O)O (stereo unspecified)
inactive: U-251 29.8 µM | OVCAR-5 21.1 µM | M14 50.2 µM | CCRF-CEM 33.5 µM | CAKI-1 19.1 µM | HL-60 18.7 µM | MOLT-4 17.3 µM | HCC 2998 40.5 µM | SNB-75 26.9 µM | A549 46.2 µM | OVCAR-3 23.6 µM | UACC-257 > 100 µM | OVCAR-8 > 100 µM | UACC-62 44.5 µM | MDA-MB-435 37.3 µM | 786-0 42 µM | ACHN 22.3 µM | NCI-H522 12.1 µM | NCI-H23 90.4 µM | SNB-19 16.9 µM

CCCSc1ccc2[nH]c(N3C(=O)/C(=C/c4ccc(O)c(OC)c4)N=C3c3ccccc3)cc2c1
inactive: OVCAR-5 4.07 µM | M14 3.58 µM | CCRF-CEM 7.82 µM | CAKI-1 14.7 µM | HL-60 2.82 µM | MOLT-4 4.23 µM | HCC 2998 2.8 µM | SNB-75 26.2 µM | OVCAR-3 6.7 µM | UACC-257 4.56 µM | OVCAR-8 21.3 µM | UACC-62 3.07 µM | MDA-MB-435 2.69 µM | 786-0 16.3 µM | ACHN 25.2 µM | NCI-H522 4.07 µM | NCI-H23 16.7 µM | SNB-19 3.57 µM

CCCCCc1c2nc(c(CCCCC)c3ccc([nH]3)c(CCCCC)c3nc(c(CCCCC)c4ccc1[nH]4)C=C3)C=C2
inactive: U-251 > 100 µM | OVCAR-5 > 100 µM | M14 > 100 µM | CCRF-CEM > 100 µM | CAKI-1 > 100 µM | HL-60 > 100 µM | MOLT-4 > 100 µM | HCC 2998 > 100 µM | SNB-75 > 100 µM | A549 > 100 µM | OVCAR-3 > 100 µM | UACC-257 > 100 µM | OVCAR-8 > 100 µM | UACC-62 > 100 µM | MDA-MB-435 > 100 µM | 786-0 > 100 µM | ACHN > 100 µM | NCI-H522 > 100 µM | NCI-H23 > 100 µM | SNB-19 > 100 µM

COc1cccc2c1OC1(C=C2)Oc2ccccc2C(=O)N1C (stereo unspecified)
inactive: U-251 39.8 µM | OVCAR-5 78.3 µM | M14 40.8 µM | CCRF-CEM 12.2 µM | CAKI-1 8.18 µM | HL-60 19.3 µM | MOLT-4 15.7 µM | HCC 2998 26.7 µM | SNB-75 16.3 µM | A549 41.6 µM | OVCAR-3 37.8 µM | UACC-257 44.8 µM | OVCAR-8 4.68 µM | UACC-62 40.6 µM | MDA-MB-435 21.6 µM | 786-0 35.5 µM | ACHN 35.2 µM | NCI-H522 19.1 µM | NCI-H23 31.2 µM | SNB-19 56.2 µM

CC(C)(Cl)C(Br)CCC(Br)(CCl)C(Cl)CBr (stereo unspecified)
inactive: U-251 > 10 µM | OVCAR-5 > 10 µM | M14 > 10 µM | CCRF-CEM > 10 µM | CAKI-1 > 10 µM | HL-60 > 10 µM | MOLT-4 > 10 µM | HCC 2998 > 10 µM | SNB-75 > 10 µM | OVCAR-3 > 10 µM | UACC-257 > 10 µM | OVCAR-8 > 10 µM | MDA-MB-435 > 10 µM | 786-0 > 10 µM | ACHN > 10 µM | NCI-H522 > 10 µM | NCI-H23 > 10 µM | SNB-19 > 10 µM
